Laboratory results from patent US20230108049A1, “ORAL FAST-DISPERSING DOSAGE FORM OF RIMEGEPANT” (BIOHAVEN PHARMACEUTICAL HOLDING COMPANY LTD., priority 2020, published 2023).

Tests used:
[1] = Excretion after oral [14C]-rimegepant; assay type: in vivo, human; details: oral [14C]-rimegepant, healthy male subjects
Text: Following oral administration of [^14C]-rimegepant to healthy male subjects, 78% of the total radioactivity was recovered in feces and 24% in urine. Unchanged rimegepant is the major single component in excreted feces (42%) and urine (51%).

[2] = Dedicated clinical study, pharmacokinetics in renal impairment; assay type: in vivo, human
Procedure: In a dedicated clinical study comparing the pharmacokinetics of rimegepant in subjects with mild (estimated creatinine clearance [CLcr] 60-89 mL/min), moderate (CLcr 30-59 mL/min), and severe (CLcr 15-29 mL/min) renal impairment to that with normal subjects (healthy matched control), the exposure of rimegepant following single 75 mg dose was approximately 40% higher in subjects with moderate renal impairment. […] NURTEC ODT has not been studied in patients with end-stage renal disease (CLcr<15 mL/min) [see Use in Specific Populations].

[3] = Dedicated clinical study, pharmacokinetics in hepatic impairment; assay type: in vivo, human
Procedure: In a dedicated clinical study comparing the pharmacokinetics of rimegepant in subjects with mild, moderate, and severe hepatic impairment to that with normal subjects (healthy matched control), the exposure of rimegepant (Cmax and AUC) following a single 75 mg dose was approximately 2-fold higher in subjects with severe impairment (Child-Pugh class C).

[4] = Pharmacokinetics in other specific populations; assay type: in vivo, human; details: based on age, sex, race/ethnicity, body weight, or CYP2C9 genotype
[5] = target: CYP1A2 (Homo sapiens, UniProt P05177); test: In vitro enzyme inhibition; assay type: in vitro ADME; details: at clinically relevant concentrations
Text: (§1) Rimegepant is a substrate of CYP3A4 and CYP2C9 [see In Vivo Studies].

[6] = target: CYP2B6 (Homo sapiens, UniProt P20813); test: In vitro enzyme inhibition; assay type: in vitro ADME; details: at clinically relevant concentrations
Sequence of CYP2B6 (Homo sapiens, UniProt P20813) (P20813 whole entry): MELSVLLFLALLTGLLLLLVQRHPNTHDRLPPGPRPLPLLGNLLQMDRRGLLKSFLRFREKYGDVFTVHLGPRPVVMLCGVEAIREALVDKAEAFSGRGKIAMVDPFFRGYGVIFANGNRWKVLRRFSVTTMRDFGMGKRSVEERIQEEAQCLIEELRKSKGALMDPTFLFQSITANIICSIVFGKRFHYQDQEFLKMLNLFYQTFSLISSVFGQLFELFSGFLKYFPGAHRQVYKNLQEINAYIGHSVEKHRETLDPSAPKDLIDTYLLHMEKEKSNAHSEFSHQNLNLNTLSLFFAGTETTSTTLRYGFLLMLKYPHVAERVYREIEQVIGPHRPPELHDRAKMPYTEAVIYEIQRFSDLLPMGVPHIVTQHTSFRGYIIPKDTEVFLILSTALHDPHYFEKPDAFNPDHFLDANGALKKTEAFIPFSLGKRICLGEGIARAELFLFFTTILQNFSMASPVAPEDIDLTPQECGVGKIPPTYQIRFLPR
Text: as §1

[7] = target: CYP2C19 (Homo sapiens, UniProt P33261); test: In vitro enzyme inhibition; assay type: in vitro ADME; details: at clinically relevant concentrations
Sequence of CYP2C19 (P33261 whole entry): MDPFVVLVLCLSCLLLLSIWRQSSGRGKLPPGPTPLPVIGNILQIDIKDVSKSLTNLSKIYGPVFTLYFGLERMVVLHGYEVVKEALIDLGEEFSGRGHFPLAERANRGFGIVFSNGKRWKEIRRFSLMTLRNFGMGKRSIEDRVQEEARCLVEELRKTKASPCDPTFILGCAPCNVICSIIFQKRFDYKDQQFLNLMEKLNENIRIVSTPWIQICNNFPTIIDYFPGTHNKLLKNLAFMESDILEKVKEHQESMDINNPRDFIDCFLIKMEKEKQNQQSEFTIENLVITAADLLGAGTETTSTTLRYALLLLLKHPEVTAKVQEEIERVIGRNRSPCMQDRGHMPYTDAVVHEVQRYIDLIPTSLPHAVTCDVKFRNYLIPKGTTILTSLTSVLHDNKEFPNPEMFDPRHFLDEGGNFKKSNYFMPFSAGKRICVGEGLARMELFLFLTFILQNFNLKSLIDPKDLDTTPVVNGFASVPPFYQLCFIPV
Text: as §1

[8] = target: CYP2C9 (Homo sapiens, UniProt P11712); test: In vitro enzyme inhibition; assay type: in vitro ADME; details: at clinically relevant concentrations
Sequence of CYP2C9 (Homo sapiens, UniProt P11712) (P11712 whole entry): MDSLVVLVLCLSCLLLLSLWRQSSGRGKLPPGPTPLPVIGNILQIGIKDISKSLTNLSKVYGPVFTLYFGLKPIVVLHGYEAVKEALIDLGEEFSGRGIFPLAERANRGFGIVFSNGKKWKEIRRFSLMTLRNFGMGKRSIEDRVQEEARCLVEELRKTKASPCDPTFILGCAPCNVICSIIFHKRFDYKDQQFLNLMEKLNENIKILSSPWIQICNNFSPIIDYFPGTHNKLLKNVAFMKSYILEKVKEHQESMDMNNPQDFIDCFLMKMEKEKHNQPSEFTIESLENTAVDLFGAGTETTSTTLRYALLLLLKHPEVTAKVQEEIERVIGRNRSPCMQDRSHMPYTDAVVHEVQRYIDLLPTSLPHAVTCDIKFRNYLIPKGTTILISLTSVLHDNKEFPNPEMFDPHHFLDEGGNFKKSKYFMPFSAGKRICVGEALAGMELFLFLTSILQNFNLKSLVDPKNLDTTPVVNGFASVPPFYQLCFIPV
Text: as §1

[9] = target: CYP2D6 (Homo sapiens, UniProt P10635); test: In vitro enzyme inhibition; assay type: in vitro ADME; details: at clinically relevant concentrations
Sequence of CYP2D6 (P10635 whole entry): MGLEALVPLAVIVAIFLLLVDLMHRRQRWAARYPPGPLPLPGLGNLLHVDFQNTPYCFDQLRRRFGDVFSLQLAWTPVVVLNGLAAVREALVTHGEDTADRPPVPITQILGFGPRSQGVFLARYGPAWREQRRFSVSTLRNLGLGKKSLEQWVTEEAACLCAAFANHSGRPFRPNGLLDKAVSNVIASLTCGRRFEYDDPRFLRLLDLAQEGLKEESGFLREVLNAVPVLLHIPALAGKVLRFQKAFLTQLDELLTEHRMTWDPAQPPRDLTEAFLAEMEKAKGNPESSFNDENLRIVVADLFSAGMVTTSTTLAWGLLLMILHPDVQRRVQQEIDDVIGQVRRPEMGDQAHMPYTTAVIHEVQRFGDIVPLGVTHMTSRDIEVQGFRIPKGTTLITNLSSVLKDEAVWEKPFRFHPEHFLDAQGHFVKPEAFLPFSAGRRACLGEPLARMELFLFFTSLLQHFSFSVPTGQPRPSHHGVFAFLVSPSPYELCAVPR
Text: as §1

[10] = target: T1, CYP3A4 (Homo sapiens, UniProt P08684); test: In vitro enzyme inhibition; assay type: in vitro ADME
T1 sequence (P08684 whole entry): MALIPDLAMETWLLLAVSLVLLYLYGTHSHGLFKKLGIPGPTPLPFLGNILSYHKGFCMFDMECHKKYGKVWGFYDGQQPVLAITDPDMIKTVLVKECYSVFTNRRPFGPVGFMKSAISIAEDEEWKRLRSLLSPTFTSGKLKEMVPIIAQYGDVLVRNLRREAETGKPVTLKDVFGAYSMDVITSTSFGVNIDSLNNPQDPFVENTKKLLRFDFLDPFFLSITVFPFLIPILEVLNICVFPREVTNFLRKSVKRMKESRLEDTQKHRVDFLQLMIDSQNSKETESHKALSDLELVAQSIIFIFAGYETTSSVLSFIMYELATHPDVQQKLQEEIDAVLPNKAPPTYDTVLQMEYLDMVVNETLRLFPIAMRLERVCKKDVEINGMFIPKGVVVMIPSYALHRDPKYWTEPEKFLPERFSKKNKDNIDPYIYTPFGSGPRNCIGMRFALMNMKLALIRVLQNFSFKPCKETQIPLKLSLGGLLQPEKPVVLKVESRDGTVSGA
Text: as §1

[11] = target: UGT1A1 (Homo sapiens, UniProt P22309); test: In vitro enzyme inhibition; assay type: in vitro ADME; details: at clinically relevant concentrations
Sequence of UGT1A1 (P22309 26-533): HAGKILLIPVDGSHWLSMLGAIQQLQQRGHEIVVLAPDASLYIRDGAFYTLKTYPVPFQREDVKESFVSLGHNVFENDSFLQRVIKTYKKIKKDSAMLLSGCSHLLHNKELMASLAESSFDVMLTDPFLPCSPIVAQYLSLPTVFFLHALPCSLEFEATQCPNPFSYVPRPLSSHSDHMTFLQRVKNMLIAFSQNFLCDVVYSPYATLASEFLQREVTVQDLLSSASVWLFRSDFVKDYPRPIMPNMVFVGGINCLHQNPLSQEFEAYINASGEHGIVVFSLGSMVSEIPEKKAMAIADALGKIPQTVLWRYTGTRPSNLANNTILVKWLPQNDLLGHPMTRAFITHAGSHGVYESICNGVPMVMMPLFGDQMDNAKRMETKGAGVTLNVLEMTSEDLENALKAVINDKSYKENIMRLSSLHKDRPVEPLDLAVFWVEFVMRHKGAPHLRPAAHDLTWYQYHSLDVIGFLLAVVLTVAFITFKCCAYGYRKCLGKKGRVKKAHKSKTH
Text: as §1

[12] = tested on: CYP1A2; test: In vitro enzyme induction; assay type: in vitro ADME; details: at clinically relevant concentrations
Text: as §1

[13] = tested on: CYP2B6; test: In vitro enzyme induction; assay type: in vitro ADME; details: at clinically relevant concentrations
Text: as §1

[14] = tested on: CYP3A4; test: In vitro enzyme induction; assay type: in vitro ADME; details: at clinically relevant concentrations
Text: as §1

[15] = target: BCRP (Homo sapiens, UniProt Q9UNQ0); test: In vitro transporter substrate study; assay type: in vitro ADME
Sequence of BCRP (Q9UNQ0 whole entry): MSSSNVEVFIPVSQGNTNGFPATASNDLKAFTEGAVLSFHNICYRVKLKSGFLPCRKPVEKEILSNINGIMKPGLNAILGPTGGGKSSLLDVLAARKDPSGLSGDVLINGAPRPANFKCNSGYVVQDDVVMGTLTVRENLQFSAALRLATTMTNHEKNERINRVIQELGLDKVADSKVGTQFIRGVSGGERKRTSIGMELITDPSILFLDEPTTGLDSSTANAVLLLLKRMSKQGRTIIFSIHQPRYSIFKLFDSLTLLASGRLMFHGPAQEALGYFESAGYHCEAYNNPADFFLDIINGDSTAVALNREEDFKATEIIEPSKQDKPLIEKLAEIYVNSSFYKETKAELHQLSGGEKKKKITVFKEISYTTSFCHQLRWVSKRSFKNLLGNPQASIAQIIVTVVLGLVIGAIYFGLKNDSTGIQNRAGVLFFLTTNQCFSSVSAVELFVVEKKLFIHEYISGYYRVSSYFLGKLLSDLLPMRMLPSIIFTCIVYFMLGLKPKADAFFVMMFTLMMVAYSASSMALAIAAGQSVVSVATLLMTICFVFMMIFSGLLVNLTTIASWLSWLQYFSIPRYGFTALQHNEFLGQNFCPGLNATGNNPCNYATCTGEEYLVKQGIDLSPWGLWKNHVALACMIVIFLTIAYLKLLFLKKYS
Procedure: (§2) Rimegepant is a substrate of P-gp and BCRP. Concomitant administration of inhibitors of P-gp or BCRP may increase the exposure of rimegepant [see Drug Interactions]. No dedicated drug interaction study was conducted to assess their effects on the pharmacokinetics of rimegepant.

[16] = target: P-gp (Homo sapiens, UniProt P08183); test: In vitro transporter substrate study; assay type: in vitro ADME
Procedure: as §2

[17] = target: T2, OATP1B1 (Homo sapiens, UniProt Q9Y6L6); test: In vitro transporter substrate study; assay type: in vitro ADME
T2 sequence (Q9Y6L6 whole entry): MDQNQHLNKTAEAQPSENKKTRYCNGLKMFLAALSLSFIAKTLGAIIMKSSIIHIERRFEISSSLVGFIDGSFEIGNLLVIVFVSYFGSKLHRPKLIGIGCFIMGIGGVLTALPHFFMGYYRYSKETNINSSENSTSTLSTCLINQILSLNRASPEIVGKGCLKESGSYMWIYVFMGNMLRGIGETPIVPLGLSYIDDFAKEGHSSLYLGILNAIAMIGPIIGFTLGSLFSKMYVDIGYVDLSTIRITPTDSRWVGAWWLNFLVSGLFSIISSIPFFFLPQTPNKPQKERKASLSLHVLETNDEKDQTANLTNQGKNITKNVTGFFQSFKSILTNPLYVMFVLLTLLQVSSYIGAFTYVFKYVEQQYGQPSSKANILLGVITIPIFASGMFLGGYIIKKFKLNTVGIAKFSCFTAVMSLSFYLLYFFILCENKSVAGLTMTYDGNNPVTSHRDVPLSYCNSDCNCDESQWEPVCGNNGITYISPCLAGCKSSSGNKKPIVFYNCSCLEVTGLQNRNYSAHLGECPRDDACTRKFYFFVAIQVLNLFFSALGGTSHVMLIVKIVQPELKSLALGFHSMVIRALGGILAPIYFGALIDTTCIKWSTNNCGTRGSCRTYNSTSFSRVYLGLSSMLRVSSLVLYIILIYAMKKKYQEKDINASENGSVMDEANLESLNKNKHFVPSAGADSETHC
Text: (§3) Considering its low renal clearance, rimegepant was not evaluated as a substrate of the OAT1, OAT3, OCT2, MATE1, or MATE2-K.

[18] = target: OATP1B3 (Homo sapiens, UniProt Q9NPD5); test: In vitro transporter substrate study; assay type: in vitro ADME
Text: as §3

[19] = target: MATE2-K (Homo sapiens, UniProt Q86VL8); test: In vitro transporter inhibition; assay type: in vitro ADME; details: at clinically relevant concentrations
Sequence of MATE2-K (Q86VL8 1-566 isoform Q86VL8-3): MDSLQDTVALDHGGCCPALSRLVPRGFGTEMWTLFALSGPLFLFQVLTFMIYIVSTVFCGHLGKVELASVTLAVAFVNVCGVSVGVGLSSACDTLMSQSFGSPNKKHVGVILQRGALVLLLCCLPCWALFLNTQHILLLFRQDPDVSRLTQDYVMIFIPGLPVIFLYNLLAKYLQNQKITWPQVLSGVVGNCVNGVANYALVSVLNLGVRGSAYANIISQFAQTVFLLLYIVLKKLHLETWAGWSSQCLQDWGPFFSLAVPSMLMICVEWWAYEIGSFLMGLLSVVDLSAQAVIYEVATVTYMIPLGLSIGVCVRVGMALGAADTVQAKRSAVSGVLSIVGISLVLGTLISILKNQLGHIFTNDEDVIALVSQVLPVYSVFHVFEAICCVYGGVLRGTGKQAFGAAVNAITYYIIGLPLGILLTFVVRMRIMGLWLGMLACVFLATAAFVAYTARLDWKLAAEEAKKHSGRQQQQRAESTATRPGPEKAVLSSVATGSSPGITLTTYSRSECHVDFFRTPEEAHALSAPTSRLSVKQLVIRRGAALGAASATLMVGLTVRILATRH

[20] = target: T2, OATP1B1; test: In vitro transporter inhibition; assay type: in vitro ADME
[21] = tested on: CYP3A4 and CYP2C9; test: Dedicated drug interaction study with fluconazole (combined moderate CYP3A4 and CYP2C9 inhibitor); assay type: in vivo, human; details: 75 mg single dose with fluconazole
[22] = tested on: CYP2C9; test: Pharmacogenomics: pharmacokinetics by CYP2C9 genotype; assay type: in vivo, human; details: CYP2C9 intermediate metabolizers (n=43) compared to normal metabolizers (N=72)
Text: CYP2C9 activity is reduced in individuals with genetic variants such as the CYP2C9*2 and CYP2C9*3 alleles. Rimegepant Cmax and AUC0-inf were similar in CYP2C9 intermediate metabolizers (i.e., *1/*2, *2/*2, *1/*3, n=43) as compared to normal metabolizers (i.e., *1/*1, N=72). Adequate PK data are not available from CYP2C9 poor metabolizers (i.e., *2/*3).

[23] = tested on: rats; test: Carcinogenesis study, oral, 91-100 weeks, rats; assay type: in vivo, rat
[24] = tested on: male and female rats; test: Fertility study, oral, male and female rats (0, 30, 60, or 150 mg/kg/day); assay type: in vivo, rat
[25] = tested on: rats; test: Second fertility study, rats, lower doses (0, 5, 15, or 25 mg/kg/day); assay type: in vivo, rat
[26] = target: T1, CYP3A4; test: Dedicated drug interaction study with itraconazole (strong CYP3A4 inhibitor); assay type: in vivo; set-up: endogenous in cells; host or cells: in vivo, endogenous enzyme of the study subjects; details: 75 mg single dose with itraconazole at steady state

SMILES: N[C@@H]1c2cccnc2[C@H](OC(=O)N2CCC(n3c(=O)[nH]c4ncccc43)CC2)CC[C@H]1c1cccc(F)c1F [rimegepant, (5S,6S,9R)-5-amino-6-(2,3-difluorophenyl)-6,7,8,9-tetrahydro-5H-cyclohepta[b]pyridin-9-yl 4-(2-oxo-2,3-dihydro-1H-imidazo[4,5-b]pyridin-1-yl)-1-piperidinecarboxylate]
- unchanged rimegepant in excreted feces [1]: 42%
- unchanged rimegepant in excreted urine [1]: 51%
- difference in exposure vs normal renal function ([2]; severe renal impairment (CLcr 15-29 mL/min)): no clinically meaningful difference
- exposure higher than in normal subjects ([2]; single 75 mg dose, moderate renal impairment (CLcr 30-59 mL/min)): approximately 40%
- difference in exposure vs normal hepatic function ([3]; mild (Child-Pugh class A) and moderate (Child-Pugh class B) hepatic impairment): no clinically meaningful differences
- exposure (Cmax and AUC) higher than in normal subjects ([3]; single 75 mg dose, severe hepatic impairment (Child-Pugh class C)): approximately 2 fold
- differences in pharmacokinetics [4]: No clinically significant differences
- inhibition of CYP1A2 [5]: not an inhibitor
- inhibition of CYP2B6 [6]: not an inhibitor
- inhibition of CYP2C19 [7]: not an inhibitor
- inhibition of CYP2C9 [8]: not an inhibitor
- inhibition of CYP2D6 [9]: not an inhibitor
- inhibition of CYP3A4 [10]: weak inhibitor of CYP3A4 with time-dependent inhibition
- inhibition of UGT1A1 [11]: not an inhibitor
- induction of CYP1A2 [12]: not an inducer
- induction of CYP2B6 [13]: not an inducer
- induction of CYP3A4 [14]: not an inducer
- substrate of BCRP [15]: substrate
- substrate of P-gp [16]: substrate
- substrate of OATP1B1 [17]: not a substrate
- substrate of OATP1B3 [18]: not a substrate
- inhibition of MATE2-K [19]: not an inhibitor
- inhibition of OATP1B1 [20]: weak inhibitor
- effect on rimegepant Cmax [21]: no relevant effect
- increase of rimegepant AUC [21]: 1.8 fold
- Cmax and AUC0-inf [22]: similar
- plasma exposure (AUC) relative to humans at the MRHD of 75 mg/day ([23]; highest dose tested (45 mg/kg/day)): approximately 30 times
- drug-induced tumors ([23]; oral 0, 5, 20, or 45 mg/kg/day for 91-100 weeks): no evidence of drug-induced tumors
- fertility ([24]; highest dose tested (150 mg/kg/day)): reduced fertility at the highest dose tested
- uterine histopathology ([24]; oral 30, 60, or 150 mg/kg/day, prior to and during mating, females to GD 7): uterine atrophy at all doses
- effects on fertility, uterine histopathology, early embryonic development ([25]; 0, 5, 15, or 25 mg/kg/day): no adverse effects on fertility, uterine histopathology, or early embryonic development
- plasma drug exposures (AUC) relative to humans at the MRHD ([25]; at the no-effect dose (25 mg/kg/day)): approximately 15 times
- no-effect dose for impairment of fertility and early embryonic development ([25]; rats): 25 mg/kg/day
- increase of rimegepant AUC [26]: 4 fold
- increase of rimegepant Cmax [26]: ~1.5 fold
